Read-outs that look alike come from different tables or passages of the source. One block for each compound: values may come before it.
Legend:
[1] = test system: IL-1β-stimulated NO production, bovine chondrocyte pellets / ARC tissues; experiment: chondrocyte pellet culture model: total nitrite/nitrate (NO); type: cell-based; conditions: for NO production: 10 ng/ml IL-1β
Source text: (§1) Calf articular cartilage was obtained from the knee joints of eight to twelve month old animals and was processed within twenty-four hours after sacrifice. After removal of muscle and ligament, the cartilage was kept moist using phosphate buffer solution (PBS) to prevent tissue dehydration, and was aseptically peeled off from subchondral bone with a scalpel, and the cartilage pieces were further minced into smaller pieces (˜0.3-0.5×˜0.2-0.5 cm cubes). […] Chondrocytes were then enzymatically isolated from the tissue by incubation for overnight at 37° C. with gentle agitation in 0.2% collagenase in Dulbecco's modified eagle media (DMEM). After removal of tissue debris by filtration through cell strainer and the residual collagenase by 3× wash in PBS, cells were finally resuspended at a density of 2.5×10^6 cells/ml in chondrocyte medium. A 1 ml aliquot of the cell suspension was dispensed into either a 15 ml Falcon centrifuge tube or a 96 deep-well plate and centrifuged at 2000×g for five minutes. The chondrocyte pellets were incubated at 37° C. in a humidified atmosphere of 5% CO2 for two to three weeks with a medium change every other day.
(§2) As an alternative to using calf articular cartilage, a commercial Alginate Recovered Chondrocytes (ARC) system was also used (Articular Engineering, LLC (Northbrook, Ill.)). Use of the commercial system cut down on labor and time in producing chondrocyte pellet. This system produced cartilaginous tissue in vitro using bovine chondrocytes. The first step consisted of culturing chondrocytes in alginate under conditions optimal for the formation of a cell-associated matrix (CM). The second step allowed these cells with their CM, after recovery, to rapidly form and become integrated into a solid mass of cartilage on a porous insert within two weeks. This tissue is rich in cells surrounded by a cell-associated matrix that is degraded rapidly when the cells are exposed to IL-1. ARC tissues in 3 mm punches at delivery were first dispensed into a 96 deep-well plate, one punch per well, for compound treatment. The subsequent procedures were the same as those used for the chondrocyte pellets.
(§3) Chondrocyte pellets were washed once with 1 ml of Chondrocyte Stimulation Medium and equilibrated in the same medium at room temperature for fifteen to thirty minutes. Compounds were dissolved in H2O, Ethanol or dimethyl sulfoxide (DMSO) (10^−2 M) according to suppliers' instructions and further diluted with Chondrocyte Stimulation Medium to the required concentrations. DMSO concentrations in the culture media should not exceed 1%; this concentration of DMSO has no effect on cartilage proteoglycan metabolism in response to cytokines.
(§4) The pellets were first treated with compounds at desired concentrations at 37° C. for one hour and then incubated for three to five days in the absence or presence of 10 ng/ml of IL-1β. At the end of the incubation, media and pellets were harvested and frozen for further analysis. Pellets were also fixed as needed in 4% (w/v) paraformaldehyde in PBS for histology analysis.
Nitrate/Nitrite levels were measured using the Griess reaction (Green L. C. et al., “Analysis of Nitrate, Nitrite, and [15N]nitrate in Biological Fluids,” Anal. Biochem. 126: 131-138 (1982)) with aNitrate/Nitrite Colorimetric Assay Kit (Cayman Chemicals), the contents of which are incorporated herein by reference. The assay involved a simple two-step process. The first step involved conversion of nitrate in 50 μl of culture medium to nitrite utilizing nitrate reductase in a reaction volume of 100 μl at room temperature for two hours. The second step involved the addition of 50 μl of both Griess Reagent 1 and 2, which converted nitrite into a deep purple azo compound in ten minutes. Photometric measurement of the absorbance at 540 or 550 nm due to this azo chromophore accurately determined nitrite concentration. […]

[2] = test system: IL-1β-stimulated PGE2 synthesis, bovine chondrocyte pellets / ARC tissues; experiment: chondrocyte pellet culture model: PGE2; type: cell-based; conditions: for PGE2 synthesis: 10 ng/ml IL-1β
Source text: as §1, §2, §3, §4
Prostaglandin E2 (PGE2) was measured with a STAT-Prostaglandin E2 EIA ELISA kit (Cayman Biochemicals). This assay is based on the competition between PGE2 from 50 μl samples and a PGE2-alkaline phosphatase conjugate for a limited amount of PGE2 monoclonal antibody in a reaction volume of 150 μl at room temperature for one hour. The antibody-PGE2 complex bound to a goat polyclonal anti-mouse IgG that had been previously attached to the well. After washing to remove any unbound reagents, para-nitrophenyl phosphate (pNPP) was added to the well. The product of this enzymatic reaction absorbs strongly at 412 nm. Because of the large range in response to IL-1β and other cytokines, PGE2 values were converted to log scale prior to doing t-tests.

[3] = type: physicochemical
Description: JNJ 3026582 (RWJ 67657) was gamma irradiated on dry ice at a dose of 15 kgray. Then the sterile drug was aseptically mixed with ORTHOVISC® in the concentrations of 10 μg/mL and 100 μg/mL. Drug content uniformity was confirmed by reverse phase HPLC. There was approximately 100% drug stability.
JNJ 17089540 (RWJ 669307) was gamma irradiated on dry ice at a dose of 15 kgray. The sterile drug as aseptically mixed with ORTHOVISC® in the concentrations of 1 ug/uL and 10 ug/uL. Drug content uniformity was confirmed by reverse phase HPLC. There was approximately 100% drug stability.
Suprofen was gamma irradiated on dry ice at dose of 15 kgray. The sterile drug was aseptically mixed with ORTHOVISC® in the concentration of 1.3 ug/uL. Drug content uniformity at time of preparation and stability of 4 months at 4° C. was confirmed by reverse phase HPLC that there was around 100% drug stability.

chondrocytes = type: cell-based
How it was run: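 Bovine chondrocyte pellets (calf articular cartilage, or alginate-recovered chondrocyte tissue punches) pretreated with compounds 1 h at 37 °C, then incubated 3-5 days with or without 10 ng/ml IL-1β, DMSO ≤1%. Media LDH activity measured colorimetrically via lactate-to-pyruvate conversion reducing INT tetrazolium to formazan.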

[4] = diacerein at 5.4 μM, rhein at 0.35 μM
[5] = within the tested concentrations

SMILES: CC(=O)Oc1cccc2c1C(=O)c1c(OC(C)=O)cc(C(=O)O)cc1C2=O [Diacerein, reference compound]
NO production [1, 4]: significantly inhibited | PGE2 synthesis [2, 4]: no effect

SMILES: OCCC#Cc1nc(-c2ccc(F)cc2)c(-c2ccncc2)n1CCCc1ccccc1 [JNJ 3026582 (RWJ 67657), 4-[4-(4-fluorophenyl)-1-(3-phenylpropyl)-5-(4-pyridinyl)-1H-imidazol-2-yl]-3-butyn-1-ol]
drug stability [3]: approximately 100% | cytotoxicity to chondrocytes (LDH, words) (chondrocytes; [5]): little cytoxicity

SMILES: C[C@H](Nc1nccc(-c2c(-c3ccc(F)cc3)nc3nc(N)ccn23)n1)c1ccccc1 [JNJ 7583979 (RWJ 351958)]
NO production ([1]; ARC): significantly inhibited | cytotoxicity to chondrocytes (LDH, words) (chondrocytes; [5]): little cytoxicity | PGE2 synthesis ([2]; ARC): significantly inhibited

SMILES: CC(=O)N1CCN(c2c(-c3ccncc3)c(-c3ccc(F)cc3)c(C#N)n2C)CC1 [JNJ 17089540 (RWJ 669307)]
IC50 ([1]; Pellet Assay, read-out: NO Inhibition IC50): 4.9 µM | IC50 ([1]; bovine ARC, 7.5 ng/ml IL-1β, five days, read-out: NO IC50): 4.92 µM | drug stability [3]: approximately 100% | cytotoxicity to chondrocytes (LDH, words) (chondrocytes): little cytoxicity | IC50 ([2]; Pellet Assay, read-out: PGE2 Inhibition IC50): 29.6 µM | IC50 ([2]; bovine ARC, 7.5 ng/ml IL-1β, five days, read-out: PGE2 IC50): 29.6 µM

drug stability ([3]; 4 months, 1.3 ug/uL): around 100%
SMILES: CC(C(=O)O)c1ccc(C(=O)c2cccs2)cc1 (centres unmarked) [Suprofen, reference compound]

Source: patent publication US8986696B2, “Trans-capsular administration of p38 map kinase inhibitors into orthopedic joints” (DePuy Mitek, Inc., priority 2007, dated 2015)
